In experiment [1] the test system is USP8 MIT domain. Put plainly: Proteomic peptide-phage display (ProP-PD) selection against USP8 MIT domain. In kind it is binding, human. Further details: Confidence: scale not given here. As to the method:
We explored the peptide-binding of the USP8 MIT domain by using the purified GST-tagged MIT domain as bait in proteomic peptide-phage display (ProP-PD) selections and a library designed to display the predicted unstructured regions of the human proteome. The peptide-coding regions of the binding-enriched phage pools were analysed by next-generation sequencing (NGS). After filtering for high confidence ligands, ten ligands remained (Fig. 1B; Supplementary Table S1). None of the ten identified protein-protein interactions had been previously reported, based on comparison with the information available in IntAct, HIPPIE and BioGrid (February 2025). Of the USP8 interacting proteins found, the D site-binding protein (DBP), which is a clock-controlled transcription factor, appears as an interesting ligand as USP8 has been reported to be involved in controlling the circadian rhythm. Also, the CCDC88A-encoded protein Girdin is an interactor of potential biological relevance as it is a scaffolding protein involved in the EGFR pathway which USP8 is known to regulate. At the motif level, there was no shared consensus motif among the ten peptide ligands. However, by manual inspection we noticed that four of the peptides contained a shared [LI]xxR[IY]xxL sequence, which appears to be a variation of the [DE]xxLxxRLxxL[KR] MIM1 motif described in the Eukaryotic Linear Motif resource (ELM) (Fig. 1B). We performed a SPOT array alanine scanning analysis in which peptides are synthesised on a membrane, and where each amino acid position of the peptide is mutated to alanine (or glycine if alanine is in the wild type peptide) to evaluate the effect of the amino acid residues in binding. We tested two peptides containing the apparent MIM1-like motif, one from Girdin (Girdin1192 − 1207) and one from the histone-lysine N-methyltransferase SETD1B (SETD1B492 − 507). […] AlphaFold3 (AF3) modelling of the four peptides with the variant MIM1 motif and the MIT domain docked the peptides with high confidence (ipTM scores: HIVEP1_741 − 756: 0.87, Girdin1192 − 1207: 0.85, MLPH481 − 496: 0.82, SETD1B492 − 507: 0.75) at the expected MIM1 binding pocket (Fig. 1D). […] However, the USP8 MIT selection was dominated (more than 94% of NGS counts) by two peptides that lack an apparent MIM1 motif. The two peptides were from the EF-hand calcium-binding domain-containing protein 12 (EFCAB12_1 − 16: […]) and from DBP (DBP116 − 131: […]) (Fig. 1B). […] In comparison to this, the EFCAB12_1 − 16 peptide shares a potential Dx[YF]xxxH[SG] motif with the DBP116 − 131 (Fig. 1B). […] The AF3 model of DBP116 − 131 peptide supports the interaction of D120 of the DBP116 − 131 peptide with the residues K74 and N71 in the MIT domain (Fig. 1G), emphasizing the significance of the aspartic acid at this position. […] Of them, two peptides (SYNE2_853 − 868 and PKNOX1_56 − 71) where placed in the same binding site as the Girdin and DBP peptides with high confidences by AF3 modelling (ipTM 0.92 and 0.74; Supplementary Fig. S3).
Four rounds of phage selections were carried out using the second generation human disorderome library or the constructed deep mutational scanning library. At least three individual replicates were used for each bait protein. 10 µg of GST-tagged proteins or GST control (diluted in PBS from the stock of proteins kept in the purification elution buffer) were immobilized in 100 µL PBS on a 96-well MaxiSorp (Nunc) plate overnight at 4 °C. The plates were incubated with blocking buffer (with 0.5% BSA in PBS) for 1 h at 4 °C followed by washing with 0.05% Tween 20 in PBS four times. The naïve phage library (10^11 CFU) was diluted in 1/5th volume PEG/NaCl (20% PEG-8000, 0.4 M NaCl) and 1X PBS, incubated on ice for 10 min and centrifuged at 10,000 [drawing 3] g for 10 min. The pellet was resuspended in the volume of PBS (100 µL/ well). […]

The subject of experiment [2] is USP8 MIT domain. Kind of experiment: SPOT array alanine scanning, USP8 MIT domain. The following applies: cellulose-bound peptides, GST-tagged MIT 100 µM, 5% skim milk TBST, overnight 4 °C, anti-GST HRP chemiluminescence; normalized to wild type. In kind it is binding, human. The protocol: (§1) SPOT array alanine scanning of peptides was designed, and cellulose-bound peptides were synthesized using Fluorenylmethyloxycarbonyl (Fmoc) solid phase synthesis with a MultiPep synthesizer (INTAVIS Peptide Services, Tübingen, Germany). The membranes of predicted peptides were purchased by JPT Peptide Technologies (Berlin, Germany). The membranes were incubated with blocking buffer containing 5% skim milk in TBST (50 mM Tris, 150 mM NaCl pH 7.5, 0.05% Tween-20) for two hours at room temperature. The blocked membranes were incubated with GST-tagged proteins (100 µM for MIT domain and 150 µM for the Rhodanese domain) in blocking buffer overnight at 4 °C. After rinsed with TBST the membranes were incubated with HRP-conjugated anti-GST antibody (Cytiva, RPN1236; 1:3000 dilution) in blocking buffer for 1 h at 4 °C and subsequently rinsed with TBST to remove any excess antibody. The ECL reagent (Clarity Max Western ECL substrate, 1705062, BioRad) was used for chemiluminescence read-out with the ChemiDoc Imaging system (BioRad). The images were analysed with Fiji (ImageJ2 version 2.9.0). SLiMSearch4 was used to design the peptide arrays with known interactors predicted to contain the motifs. The background signal intensity was subtracted, and the corrected signal intensities were normalized to the positive control and presented as percentage.

In experiment [3] the target is T1, USP8 Rhod domain (Homo sapiens, UniProt P40818).
T1 construct: USP8 Rhod (174–317) (UniProt: P40818); GST (cleaved yes); made in house; host or cells: Escherichia coli BL21-Gold (DE3)
T1 sequence (P40818 174-317): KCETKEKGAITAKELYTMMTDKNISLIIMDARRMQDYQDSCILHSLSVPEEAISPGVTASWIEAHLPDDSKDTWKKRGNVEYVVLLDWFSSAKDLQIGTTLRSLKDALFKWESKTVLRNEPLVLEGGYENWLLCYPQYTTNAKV
Kind of experiment: ProP-PD selection against USP8 Rhod domain. The note with it: for NGS counts (%): ProP-PD, human disorderome library, GST-tagged Rhod bait, four rounds of selection, Fig. 3A; for max_counts: Total NGS counts; for Counts: fraction of NGS counts for a selection; for Promiscuity: number of baits selections where the peptide has been observed, calculated on the domain level; for Replicates: number of screens against the bait protein in which the peptide has been found; for Specificity: proportion for the current bait of the total NGS read counts of the peptide for all baits screened with this library. The class given is binding. The protocol: We next evaluated the peptide binding of the Rhod domain by ProP-PD selections. […] (February 2025).
Four rounds of phage selections were carried out using the second generation human disorderome library or the constructed deep mutational scanning library. At least three individual replicates were used for each bait protein. 10 µg of GST-tagged proteins or GST control (diluted in PBS from the stock of proteins kept in the purification elution buffer) were immobilized in 100 µL PBS on a 96-well MaxiSorp (Nunc) plate overnight at 4 °C. The plates were incubated with blocking buffer (with 0.5% BSA in PBS) for 1 h at 4 °C followed by washing with 0.05% Tween 20 in PBS four times. The naïve phage library (10^11 CFU) was diluted in 1/5th volume PEG/NaCl (20% PEG-8000, 0.4 M NaCl) and 1X PBS, incubated on ice for 10 min and centrifuged at 10,000 [drawing 3] g for 10 min. The pellet was resuspended in the volume of PBS (100 µL/ well). The GST-coated control plate was incubated with 100 µL library per well in PBS for 1 h at 4 °C to remove non-specific binders. The supernatant was transferred to the target wells and incubated for 2 h at 4 °C. The wells were washed five times with 0.05% Tween 20 in PBS and the bound phages were eluted with 100 µL per well log-phase E. coli OmniMAX by incubating at 37° C while shaking. After 30 min, M13KO7 helper phages were added and incubated for an additional 45 min. The bacterial cultures were transferred to 1 mL 2YT supplemented with 100 µg/mL carbenicillin, 30 µg/mL kanamycin and 0.3 mM IPTG and grew overnight at 37 °C while shaking. The following day the cultures were centrifuged for 10 min at 2,000 [drawing 4] g, 4 °C. 1/10th volume of 10 [drawing 5] PBS was added to adjust the pH and heated at 65 °C for 10 min. The phage pools from each round were used as in-phages for the next round of selections.
The samples were prepared for NGS as previously described. […] The PCR products were normalized with 25 µL Mag-bind Total Pure NGS beads (Omega Biotek) and 10 µL of each eluted sample (Qiagen Elution Buffer) was pooled and cleaned-up with a PCR purification kit (Qiagen). The PCR product was confirmed by 2% agarose electrophoresis and the band was extracted with QIAquick Gel extraction Kit (Qiagen) and eluted with 30 µL TE buffer. The dsDNA was quantified using QuantiT PicoGreen dsDNA Assay Kit (Thermo Fisher) and sent for NGS (Illumina MiSeq v3, 1 × 150 bp read setup, 20% PhiX, NGI SciLifeLab facility, Sweden). The NGS data were demultiplexed, adapter regions were trimmed and sequences with an average quality of at least 20 were translated to peptide sequences. The NGS data were analysed using custom Python scripts. The total read NGS counts for each selection experiment of each peptide sequence were compiled and annotated in PepTools (https://slim.icr.ac.uk/tools/peptools/). Since ProP-PD is in essence a competition assay, the possibility of the input phage library influencing the selection outcome was explored. […] Pearson correlation coefficient and p-value were calculated using Python’s SciPy library.

Experiment [4] concerns the target T1, USP8 Rhod domain. Put plainly: SPOT array of predicted peptides from known interactors, USP8 Rhod domain. The note with it: for Percentage (%) normalized to highest intensity and corrected for background: Rhod-Peptide screening, SPOT array of predicted peptides, KIAA1614 positive control = 100. The class given is binding.
Excerpt: The results therefore support that the USP8 Rhod domain binds to two distinct types of motifs (Fig. 4A, B). We used the motifs to scan for matching motifs in previously reported interactors using the SLiMSearch algorithm (Supplementary Table S8 A). As there was no clear match for the TET3-type motif except from only one hit, we focused on the KIAA1614-type motif. […] Both TP63 and USP21 are previously reported USP8 substrates, and the interactions may potentially contribute to substrate targeting. […] As the SHANK3 peptides (351-[…]−365 and 392-[…]−406) are closely located in the primary structure of SHANK3, it is tempting to speculate that both motifs contribute to the interactions between the full-length proteins by increasing the local concentration of binding motifs. […] Taken together, we find that the USP8 Rhod domain is a peptide binding domain that can be bound by peptides of two distinct types of motifs, with the Rx[LI]xGxxxPxxL motif and variants thereof being found in known USP8 substrates.
as §1

With “EVEHRDLEDRYNQLLK [Girdin1192 − 1207, CCDC88A-encoded protein Girdin peptide]”, the “NGS counts (%)” value with USP8 MIT domain [1] (ProP-PD, human disorderome library, GST-tagged MIT bait, four rounds of selection, percent of NGS counts associated with each peptide, Fig. 1B) is 1.10%. This sequence also showed a max_counts in the experiment with USP8 MIT domain [1] (Total NGS counts) of 80. Moreover, the Confidence with USP8 MIT domain [1] (calculated based on four metrics: overlapping peptides, replicated peptides, motif match, peptide counts) was 2. The sequence further registered a Counts in the experiment on USP8 MIT domain [1] (fraction of NGS counts for a selection) of 0.002924. Also, the Promiscuity with USP8 MIT domain [1] (number of baits selections where the peptide has been observed, calculated on the domain level) was 1. For the same sequence, the Replicates with USP8 MIT domain [1] (number of screens against the bait protein in which the peptide has been found) was determined as 3. The Specificity in the experiment on USP8 MIT domain [1] (proportion for the current bait of the total NGS read counts of the peptide for all baits screened with this library) was 1. The “residues important for binding by SPOT array alanine scanning” value in the experiment with USP8 MIT domain [2] is given as “binding to the Girdin1192 − 1207 peptide was lost when the residues LExRYxxLL were mutated to alanine”.
For “HIWHYDEEYLPDASKP [TTBK2, Tau-tubulin kinase 2 peptide 503-518]”, at USP8 Rhod domain [3], the “NGS counts (%)” value came out at 0.06%, the max_counts was 76, the Counts was 0.0007473 and the Promiscuity is reported as 7. Also, at USP8 Rhod domain [3], the Replicates was 2 and the Specificity amounted to 0.5152.
“LMNFLGDSNPFNLLRM [BCL11B, B-cell lymphoma/leukemia 11B peptide 279-294]”: on USP8 Rhod domain [3], the “NGS counts (%)” value was 0.58%, the max_counts was found to be 421, the Counts is 0.006181 and the Promiscuity is given as 6. On USP8 Rhod domain [3], this sequence came in with a Replicates of 3 and a Specificity of 0.9228.
As to “QPNHGLALWEAKMKQL [TET3 1701-1716, Methylcytosine dioxygenase TET3 peptide, overlapping]”, at USP8 Rhod domain [3], the max_counts is on record as 7, the Counts turned out to be 0.00009459587683709846, the Promiscuity is 2 and the Replicates was found to be 3. On USP8 Rhod domain [3], the Specificity came out at 0.8889.
In the case of SWAAGPGSLLAWLIL, at USP8 Rhod domain [4], the “Percentage (%) normalized to highest intensity and corrected for background” value is 1.45%.
The same measure, in the same setting: under SYAKRRRLAGPSGLA stands 7%.
On to SYAKRRRLAGPSGLA [SHANK3 peptide], for which the “SPOT intensity in words” value on USP8 Rhod domain [4] (GST-tagged Rhod 150 µM, positive control KIAA1614_568 − 583, array of 42 predicted peptides) is “Weaker signals”.
With TASSLPRKLLPWEEG, the “Percentage (%) normalized to highest intensity and corrected for background” value on USP8 Rhod domain [4] is -1.1%.
Same read-out and setting: under TGLTVPPALLRANSD stands -1.11%; under TRKFSSPPPLSITK, 6%.
Turning to “YDTLIIRDYTQSSSSL [GRM5, Metabotropic glutamate receptor 5 peptide 1197-1212]”, on USP8 Rhod domain [3], the “NGS counts (%)” value amounted to 0.02%, the max_counts was determined as 23, the Counts is recorded as 0.0001477 and the Promiscuity is 4. At USP8 Rhod domain [3], this sequence displayed a Replicates of 2 and a Specificity of 0.5417.

Values taken from publication PMC12057046, “Elucidation of short linear motif-based interactions of the MIT and rhodanese domains of the ubiquitin-specific protease 8” (Biology Direct, 2025).
